Results reported in PMC9645260, “Small-molecule inhibitors of P-Rex guanine-nucleotide exchange factors” (Small GTPases, 2022).

Key:
full-length P-Rex2 = target: T1, full-length P-Rex2 (Homo sapiens, UniProt Q70Z35); assay: Liposome-based GEF activity assay, PIP3-stimulated full-length P-Rex2; format: biochemical; conditions: 40 nM P-Rex2, read-out: inhibition of PIP3-stimulated Rac-GEF activity of full-length P-Rex2
T1 construct: Full-length N-terminally EE-tagged P-Rex1, P-Rex2; made in house; host or cells: Sf9 cells (baculovirus)
T1 sequence (Q70Z35 whole entry): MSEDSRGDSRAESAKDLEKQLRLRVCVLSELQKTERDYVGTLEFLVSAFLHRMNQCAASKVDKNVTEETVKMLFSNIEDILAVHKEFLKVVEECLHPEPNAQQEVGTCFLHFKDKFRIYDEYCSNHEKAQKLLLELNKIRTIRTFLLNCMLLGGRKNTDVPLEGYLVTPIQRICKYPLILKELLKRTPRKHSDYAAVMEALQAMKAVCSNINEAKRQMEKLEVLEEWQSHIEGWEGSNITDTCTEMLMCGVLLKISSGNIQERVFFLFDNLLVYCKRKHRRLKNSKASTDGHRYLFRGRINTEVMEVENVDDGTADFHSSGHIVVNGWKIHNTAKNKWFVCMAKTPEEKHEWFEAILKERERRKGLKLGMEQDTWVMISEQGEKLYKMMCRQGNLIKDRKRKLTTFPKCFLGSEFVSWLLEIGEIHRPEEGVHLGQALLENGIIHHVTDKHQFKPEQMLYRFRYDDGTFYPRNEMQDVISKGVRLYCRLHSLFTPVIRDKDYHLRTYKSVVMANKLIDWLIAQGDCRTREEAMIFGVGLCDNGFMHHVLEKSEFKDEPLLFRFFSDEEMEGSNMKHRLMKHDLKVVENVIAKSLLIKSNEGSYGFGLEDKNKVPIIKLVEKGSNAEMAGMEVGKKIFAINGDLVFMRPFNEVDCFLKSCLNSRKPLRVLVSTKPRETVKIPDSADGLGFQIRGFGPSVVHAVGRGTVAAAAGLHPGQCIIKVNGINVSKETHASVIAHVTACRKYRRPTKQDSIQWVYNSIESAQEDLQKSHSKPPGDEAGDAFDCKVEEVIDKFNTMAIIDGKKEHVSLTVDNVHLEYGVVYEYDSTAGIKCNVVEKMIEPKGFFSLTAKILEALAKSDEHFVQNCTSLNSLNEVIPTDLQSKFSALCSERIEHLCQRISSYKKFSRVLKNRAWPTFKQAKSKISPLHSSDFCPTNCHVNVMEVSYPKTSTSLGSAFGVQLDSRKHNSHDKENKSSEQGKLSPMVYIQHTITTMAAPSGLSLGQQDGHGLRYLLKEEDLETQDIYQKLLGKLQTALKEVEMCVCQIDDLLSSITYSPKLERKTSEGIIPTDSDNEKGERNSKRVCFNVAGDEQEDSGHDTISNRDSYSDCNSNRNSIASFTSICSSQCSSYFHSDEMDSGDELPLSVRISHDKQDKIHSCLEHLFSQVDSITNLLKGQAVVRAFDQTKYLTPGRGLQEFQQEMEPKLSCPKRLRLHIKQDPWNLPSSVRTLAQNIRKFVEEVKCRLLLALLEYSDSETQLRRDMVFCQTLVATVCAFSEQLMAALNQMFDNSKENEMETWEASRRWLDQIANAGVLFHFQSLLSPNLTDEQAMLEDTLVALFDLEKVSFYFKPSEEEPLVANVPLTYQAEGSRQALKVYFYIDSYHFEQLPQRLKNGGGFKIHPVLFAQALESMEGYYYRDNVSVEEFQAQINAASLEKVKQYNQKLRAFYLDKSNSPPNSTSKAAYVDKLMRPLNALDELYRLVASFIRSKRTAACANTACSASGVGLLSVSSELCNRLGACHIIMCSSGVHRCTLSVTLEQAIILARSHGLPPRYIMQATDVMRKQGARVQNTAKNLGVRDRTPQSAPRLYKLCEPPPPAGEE
Procedure: (§1) Full-length N-terminally EE-tagged P-Rex1, P-Rex2, the P-Rex1 DH and DHPH domains and the P-Rex2 DH domain were produced in Sf9 cells using baculoviral transduction and were purified using anti-EE beads, as previously described. Briefly, frozen pellets from 500 ml of Sf9 culture infected with P-Rex expressing high-titre baculovirus were resuspended in ice-cold lysis Sf9-cell lysis buffer 2 (1x PBS, 1% Triton X-100, 5 mM EGTA, 1 mM EDTA, 25 mM NaF, 20 mM β-glycerophosphate, 1 mM DTT, 100 µM PMSF, 10 μg/ml each of leupeptin, pepstatin A, aprotinin and antipain) for 5 min and then ultracentrifuged at 118,000 × g for 1 h at 4°C. Supernatants were incubated with pre-washed anti-EE beads for 90 min on ice with end-over-end rotation. […] Protein concentration and purity were determined by coomassie staining of SDS-PAGE gels. […]
(§2) Liposome-based GEF activity assays were carried out essentially as described, except that GEFs were incubated with inhibitor compounds prior to the assay. […] Small GTPases were isolated using anti-EE antibody-coupled Sepharose beads or glutathione Sepharose beads, as appropriate, by incubation on ice for 90 min with end-over-end rotation, four washes in ice-cold wash buffer and resuspension of beads in Ultima Gold scintillation fluid (Perkin Elmer). ^35S-GTPγS incorporation was assessed by scintillation counting (Packard 1600TR, Liquid Scintillation Analyser).

Tiam1 (full-length) = target: T2, Tiam1 (full-length) (Homo sapiens, UniProt Q13009); assay: Liposome-based GEF activity assay, Tiam1; format: biochemical; conditions: 10 µM, 50 nM full-length Tiam1
T2 construct: Full-length Tiam1, expressed in and purified from Sf9 cells; host or cells: Sf9 cells
T2 sequence (Q13009 whole entry): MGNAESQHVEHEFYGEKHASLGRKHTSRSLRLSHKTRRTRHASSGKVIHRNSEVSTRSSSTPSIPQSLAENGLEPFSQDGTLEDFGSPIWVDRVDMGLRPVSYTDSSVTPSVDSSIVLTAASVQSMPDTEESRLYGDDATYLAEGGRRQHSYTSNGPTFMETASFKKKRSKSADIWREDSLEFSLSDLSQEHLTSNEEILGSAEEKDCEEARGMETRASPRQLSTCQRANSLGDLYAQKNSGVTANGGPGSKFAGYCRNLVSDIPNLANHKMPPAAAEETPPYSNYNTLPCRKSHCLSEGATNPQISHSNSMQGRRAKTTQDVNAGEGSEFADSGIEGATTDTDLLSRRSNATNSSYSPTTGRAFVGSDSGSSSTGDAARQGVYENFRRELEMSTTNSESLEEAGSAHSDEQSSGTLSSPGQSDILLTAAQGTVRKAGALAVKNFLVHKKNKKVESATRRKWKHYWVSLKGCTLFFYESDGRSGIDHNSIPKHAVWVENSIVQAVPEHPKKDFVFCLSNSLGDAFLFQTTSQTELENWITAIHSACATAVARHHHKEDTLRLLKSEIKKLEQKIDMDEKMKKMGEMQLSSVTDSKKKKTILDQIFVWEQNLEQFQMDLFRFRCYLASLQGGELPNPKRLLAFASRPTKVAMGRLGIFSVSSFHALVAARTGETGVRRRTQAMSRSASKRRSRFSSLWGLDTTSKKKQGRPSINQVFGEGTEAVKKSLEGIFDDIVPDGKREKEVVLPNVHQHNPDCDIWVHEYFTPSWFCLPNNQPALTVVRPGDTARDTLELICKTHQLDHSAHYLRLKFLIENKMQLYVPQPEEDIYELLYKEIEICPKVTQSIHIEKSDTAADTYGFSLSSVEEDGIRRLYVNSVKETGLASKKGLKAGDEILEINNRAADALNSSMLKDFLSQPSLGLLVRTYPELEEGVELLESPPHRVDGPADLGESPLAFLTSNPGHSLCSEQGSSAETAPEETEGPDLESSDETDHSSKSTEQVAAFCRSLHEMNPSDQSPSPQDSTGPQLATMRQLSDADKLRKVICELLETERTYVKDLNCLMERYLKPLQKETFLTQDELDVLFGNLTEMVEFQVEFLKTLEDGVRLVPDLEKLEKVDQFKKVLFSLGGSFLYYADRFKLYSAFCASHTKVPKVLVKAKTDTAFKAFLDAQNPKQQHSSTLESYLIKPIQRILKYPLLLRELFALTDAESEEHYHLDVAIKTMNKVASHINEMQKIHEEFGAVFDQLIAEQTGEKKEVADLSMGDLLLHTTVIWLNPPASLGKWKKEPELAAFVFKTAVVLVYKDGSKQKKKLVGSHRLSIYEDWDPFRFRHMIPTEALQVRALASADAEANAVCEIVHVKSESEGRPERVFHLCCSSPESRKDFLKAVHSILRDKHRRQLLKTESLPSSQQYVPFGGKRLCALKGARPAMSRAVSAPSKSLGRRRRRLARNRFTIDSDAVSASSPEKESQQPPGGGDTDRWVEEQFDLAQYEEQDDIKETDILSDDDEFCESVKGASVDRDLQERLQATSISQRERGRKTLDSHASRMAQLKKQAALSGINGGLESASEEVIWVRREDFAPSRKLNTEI
Procedure: as §1, §2

COc1ccc(-c2[nH]nc3c2C(c2ccc(-c4ccc(Cl)cc4)o2)C(C#N)=C(N)O3)cc1 (centres unmarked) [PREX-in1, 6-amino-4-[5-(4-chlorophenyl)-2-furyl]-3-(4-methoxyphenyl)-2,4-dihydropyrano[2,3-c]pyrazole-5-carbonitrile]
inhibition at 10 µM (full-length P-Rex2): 82% | effect on GEF activity of Tiam1 (Tiam1 (full-length)): none of the other GEFs were affected
